Data: US20040106545A1, “Compounds and methods for modulating cell adhesion” (priority 1996, published 2004)
pIC50: −log10 of the molar value. Positions of bridges follow the written chain, without caps; N, C: chain ends. Residues, ends and D or L forms follow the SMILES beside them.

What was measured:
chick N-cadherin = target: T1, chick N-cadherin (Gallus gallus, UniProt P10288); test: Neurite outgrowth of rat cerebellar neurons on N-cadherin expressing 3T3 monolayers (Example 15); type: cell-based; settings: for inhibitory activity on N-cadherin dependent neurite outgrowth, structure/activity statements: Tables 8 and 9; for effect on neurite outgrowth over N-cadherin expressing cells (in words): 500 μg/mL
T1 construct: expressed in transfected cells; host or cells: 3T3 fibroblasts (monolayer); rat post-natal day 2-3 cerebellar neurons plated on top
T1 sequence (P10288 165-912): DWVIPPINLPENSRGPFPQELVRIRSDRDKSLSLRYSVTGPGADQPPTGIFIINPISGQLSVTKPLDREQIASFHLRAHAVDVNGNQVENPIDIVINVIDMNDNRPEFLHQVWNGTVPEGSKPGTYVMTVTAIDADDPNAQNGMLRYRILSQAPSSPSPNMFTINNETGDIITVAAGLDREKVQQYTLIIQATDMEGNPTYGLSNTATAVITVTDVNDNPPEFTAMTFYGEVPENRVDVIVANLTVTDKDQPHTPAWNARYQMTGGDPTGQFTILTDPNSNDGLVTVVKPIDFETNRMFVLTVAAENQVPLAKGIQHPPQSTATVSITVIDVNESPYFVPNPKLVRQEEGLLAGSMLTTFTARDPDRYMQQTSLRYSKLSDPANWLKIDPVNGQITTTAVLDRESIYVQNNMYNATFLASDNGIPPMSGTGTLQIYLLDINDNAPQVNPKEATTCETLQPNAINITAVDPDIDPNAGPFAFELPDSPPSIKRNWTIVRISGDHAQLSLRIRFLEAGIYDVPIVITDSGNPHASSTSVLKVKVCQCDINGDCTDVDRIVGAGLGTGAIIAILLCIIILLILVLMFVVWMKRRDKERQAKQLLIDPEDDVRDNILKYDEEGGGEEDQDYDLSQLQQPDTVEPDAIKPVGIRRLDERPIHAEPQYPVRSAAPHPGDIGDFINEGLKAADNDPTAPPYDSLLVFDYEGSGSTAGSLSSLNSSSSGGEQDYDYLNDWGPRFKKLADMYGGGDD

SKOV3 cells = test: Disruption of human ovarian cancer cell (SKOV3) adhesion; type: cell-based; settings: for activity in SKOV3 cells (cell adhesion): 0.01-1 mg/mL; for disruption of SKOV3 cell adhesion: 1 mg/mL media, within 24 hours
Experimental: FIGS. 37A and 37B are photographs illustrating the effect of N—Ac-CHAVC-Y—NH2 (SEQ ID NO:84) on SKOV3 cell adhesion. A confluent culture of SKOV3 cells was briefly trypsinated and counted using a hemacytometer. The cells were diluted to 5×10^3/mL in MEM (Gibco BRL) containing 10% FBS (Wisent). A 10 mg/mL solution of peptide was added directly to the media at a concentration of 1 mg/mL. The plate was incubated in a humidified chamber at 37° C. for 24 hours in 5% CO2. Morphological changes were evaluated after 24 hours.
The human ovarian cancer cell line SKOV3 (ATCC #HTB-77) expresses N-cadherin. SKOV3 cells were cultured in a modified MEM-based media containing 10% FCS. Cells were grown in T-250 culture flasks and maintained by periodic subculturing. Cyclic peptides were tested on cells grown in individual wells of 96-well culture dishes (surface area of each well was 0.32 cm^2). Cells were harvested from flasks and seeded at a density of 50,000 cells per well in 0.1 mL media containing the cyclic peptides at concentrations of 1, 0.1, or 0.01 mg/mL, or in the absence of cyclic peptide. Media control wells were also established. Cultures were evaluated periodically by microscopic examination under both bright field and phase contrast conditions. Cultures were maintained for 48 hours.

[1] = Cytotoxicity, MTT assay, HMVEC; type: cell-based; settings: human, HMVEC (human microvascular endothelial cells), read-out: HMVEC Cytotox (IC50)
Experimental: (§1) N—Ac-CHAVC-NH2 (SEQ ID NO:10) and the control peptide N—Ac-CHGVC-NH2 (SEQ ID NO:11) were evaluated for possible cytotoxic effects on human microvascular endothelial (HMVEC; Clonetics), human umbilical vein endothelial (HUVEC; ATCC #CRL-1730), IAFp2 (human fibroblast cell line; Institute Armand-Frapier, Montreal, Quebec), WI-38 (human fibroblast cell line; ATCC #CCL-75), MDA-MB231 (human breast cancer cell line; ATCC #HTB-26), and PC-3 (human prostate cancer cell line; ATCC #CRL-1435) cells utilizing the MTT assay (Plumb et al., Cancer Res. 49:4435-4440, 1989). Neither of the peptides was cytotoxic at concentrations up to and including 100 μM. Similarly, neither of the peptides was capable of inhibiting the proliferation of the above cell lines at concentrations up to 100 μM, as judged by ^3H-thymidine incorporation assays.

[2] = Cytotoxicity, MTT assay, PC-3; type: cell-based, human; settings: human, MTT assay, read-out: PC-3 Cytotox (IC50)
Outline: (§2)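 Peptide concentrations reached 100 μM. Both an MTT cytotoxicity read-out and ^3H-thymidine incorporation for proliferation were used.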

[3] = Cytotoxicity, MTT assay, MDA-MB231; type: cell-based, human; settings: human, MTT assay, read-out: MDA-MB231 Cytotox (IC50)
Outline: as §2

[4] = Cytotoxicity, MTT assay, WI-38; type: cell-based; settings: human, read-out: WI-38 Cytotox (IC50)
Experimental: as §1

CC[C@H](C)[C@@H]1NC(=O)[C@H](CC(=O)O)NC(=O)[C@H](C(C)C)NC(=O)[C@H](C)NC(=O)[C@H](Cc2c[nH]cn2)NC(=O)[C@H](C)NC(=O)[C@@H](NC(C)=O)CSSC[C@@H](C(N)=O)NC1=O (Ac-CAHAVDIC-NH2; disulfide 1-8)
inhibition of N-cadherin dependent neurite outgrowth (in words) (chick N-cadherin; 250 μg/mL): potent inhibitors of neurite outgrowth | activity on N-cadherin dependent neurite outgrowth (in words) (chick N-cadherin; 125 micrograms/mL or below): lost activity | inhibitory activity on N-cadherin dependent neurite outgrowth, structure/activity statements (chick N-cadherin): reduced, but did not eliminate, the activity | activity in SKOV3 cells (cell adhesion) (SKOV3 cells): inactive

CC(=O)N[C@H]1CSSC[C@@H](C(N)=O)NC(=O)[C@H](CC(=O)O)NC(=O)[C@H](C(C)C)NC(=O)[C@H](C)NC(=O)[C@H](Cc2c[nH]cn2)NC(=O)[C@H](C)NC1=O [N—Ac—CAHAVDC—NH2, N-Ac-Cys-Ala-His-Ala-Val-Asp-Cys-NH2] (Ac-CAHAVDC-NH2; disulfide 1-7)
inhibitory activity on N-cadherin dependent neurite outgrowth, structure/activity statements (chick N-cadherin): completely eliminated inhibitory activity | activity in SKOV3 cells (cell adhesion) (SKOV3 cells): inactive

CC(=O)N[C@H]1CSSC[C@@H](C(N)=O)NC(=O)[C@H](C(C)C)NC(=O)[C@H](C)NC(=O)[C@H](Cc2c[nH]cn2)NC1=O [N—Ac—CHAVC—NH2, N-Ac-Cys-His-Ala-Val-Cys-NH2]
effect on neurite outgrowth over N-cadherin expressing cells (in words) (chick N-cadherin): inhibition of neurite outgrowth | effect on the N-cadherin response (chick N-cadherin; concentrations up to 62 μg/ml): no significant effect on the N-cadherin response | pIC50 [1]: < 4.00 | pIC50 ([2]; PC-3 prostate cancer cell line): < 4.00 | pIC50 ([3]; MDA-MB231 breast cancer cell line): < 4.00 | disruption of SKOV3 cell adhesion (SKOV3 cells): disrupted SKOV3 cell adhesion | SKOV3 cell morphology (SKOV3 cells; 0.5 or 1 mg/ml, 24-48 hours (figure legends)): SKOV3 cells retract from one another and round-up | pIC50 ([4]; WI-38 fibroblast cell line): < 4.00

CC(=O)N[C@H]1CSSC[C@@H](C(N)=O)NC(=O)[C@H](C(C)C)NC(=O)CNC(=O)[C@H](Cc2c[nH]cn2)NC1=O [N—Ac—CHGVC—NH2, reference compound]
effect on neurite outgrowth over N-cadherin expressing cells (in words) (chick N-cadherin): had no effect on neurite outgrowth | pIC50 [1]: < 4.00 | pIC50 ([2]; PC-3 cells (human prostate cancer cell line)): < 4.00 | pIC50 ([3]; MDA-MB231 cells (human breast cancer cell line)): < 4.00 | disruption of SKOV3 cell adhesion (SKOV3 cells): had no affect on cell adhesion | pIC50 ([4]; WI-38 cells (human fibroblast cell line)): < 4.00
